Values quoted from earlier work, collected in paper PMC9516332 (Frontiers in Oncology, 2022).
Where two headings read alike, the source gives them in different places.

Key:
Settings in all cases: cited from earlier work
[1] = biological target: panel of 255 wild-type kinases (Homo sapiens, UniProt O94804)
[2] = biological target: panel of 255 wild-type kinases (Homo sapiens, UniProt P07948)
[3] = biological target: panel of 255 wild-type kinases (Homo sapiens, UniProt P08631)
[4] = biological target: panel of 255 wild-type kinases (Homo sapiens, UniProt P22607)
[5] = biological target: panel of 255 wild-type kinases (Homo sapiens, UniProt P43405)
[6] = biological target: panel of 255 wild-type kinases (Homo sapiens, UniProt P50750)
[7] = biological target: panel of 255 wild-type kinases (Homo sapiens, UniProt P68400)
[8] = biological target: panel of 255 wild-type kinases (Homo sapiens, UniProt Q04759)
[9] = biological target: panel of 255 wild-type kinases (Homo sapiens, UniProt Q08345)
[10] = biological target: T1, panel of 255 wild-type kinases (Homo sapiens, UniProt Q12851)
T1 sequence (Q12851 1-820): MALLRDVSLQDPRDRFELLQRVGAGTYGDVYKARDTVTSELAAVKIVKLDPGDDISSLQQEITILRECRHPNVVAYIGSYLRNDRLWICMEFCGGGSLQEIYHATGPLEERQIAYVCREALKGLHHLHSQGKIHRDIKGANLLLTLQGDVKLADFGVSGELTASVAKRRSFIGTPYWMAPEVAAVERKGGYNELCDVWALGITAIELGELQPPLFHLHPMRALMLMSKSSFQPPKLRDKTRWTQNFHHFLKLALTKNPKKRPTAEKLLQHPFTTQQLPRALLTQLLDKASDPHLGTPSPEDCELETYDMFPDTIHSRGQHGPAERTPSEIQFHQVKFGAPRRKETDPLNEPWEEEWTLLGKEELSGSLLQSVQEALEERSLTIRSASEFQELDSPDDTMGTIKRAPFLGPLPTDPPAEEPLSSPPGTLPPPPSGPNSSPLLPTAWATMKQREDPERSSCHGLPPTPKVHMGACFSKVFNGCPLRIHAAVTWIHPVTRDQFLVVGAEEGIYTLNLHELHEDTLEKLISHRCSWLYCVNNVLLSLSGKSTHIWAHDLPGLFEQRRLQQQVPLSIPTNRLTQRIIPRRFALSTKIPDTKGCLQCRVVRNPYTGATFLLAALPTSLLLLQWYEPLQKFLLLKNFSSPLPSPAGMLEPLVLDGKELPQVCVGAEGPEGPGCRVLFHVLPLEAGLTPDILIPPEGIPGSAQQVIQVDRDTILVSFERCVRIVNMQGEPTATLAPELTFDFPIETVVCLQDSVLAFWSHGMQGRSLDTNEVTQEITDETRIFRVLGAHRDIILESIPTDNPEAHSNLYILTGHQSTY

[11] = biological target: panel of 255 wild-type kinases (Homo sapiens, UniProt Q16288)
[12] = biological target: panel of 255 wild-type kinases (Homo sapiens, UniProt Q7KZI7)
[13] = biological target: T2, panel of 255 wild-type kinases (Homo sapiens, UniProt Q8IW41)
T2 sequence (Q8IW41 1-473): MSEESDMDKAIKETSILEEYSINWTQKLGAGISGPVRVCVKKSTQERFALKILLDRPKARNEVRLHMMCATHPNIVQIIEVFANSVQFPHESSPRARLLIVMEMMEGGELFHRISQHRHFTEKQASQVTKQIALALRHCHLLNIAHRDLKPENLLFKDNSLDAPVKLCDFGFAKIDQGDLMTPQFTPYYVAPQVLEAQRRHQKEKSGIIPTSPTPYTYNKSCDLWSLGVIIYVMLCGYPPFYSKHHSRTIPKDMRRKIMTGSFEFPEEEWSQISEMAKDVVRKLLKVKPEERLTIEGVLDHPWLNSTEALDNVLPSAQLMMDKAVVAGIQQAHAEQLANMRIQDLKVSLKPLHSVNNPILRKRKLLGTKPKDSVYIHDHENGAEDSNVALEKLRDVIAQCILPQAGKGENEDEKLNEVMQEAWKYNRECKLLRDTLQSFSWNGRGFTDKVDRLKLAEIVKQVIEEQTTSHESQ

[14] = kinase LOK, 1 µmol/L single concentration, ref DOI: 10.1158/1535-7163.MCT-18-0877
[15] = kinase LYNa, 1 µmol/L single concentration, ref DOI: 10.1158/1535-7163.MCT-18-0877
[16] = kinase HCK, 1 µmol/L single concentration, ref DOI: 10.1158/1535-7163.MCT-18-0877
[17] = kinase FGFR3, 1 µmol/L single concentration, ref DOI: 10.1158/1535-7163.MCT-18-0877
[18] = kinase SYK, 1 µmol/L single concentration, ref DOI: 10.1158/1535-7163.MCT-18-0877
[19] = CDK9/CycT1 kinase assay, 1 µmol/L single concentration, ref DOI: 10.1158/1535-7163.MCT-18-0877
[20] = kinase CK2α1/β, 1 µmol/L single concentration, ref DOI: 10.1158/1535-7163.MCT-18-0877
[21] = kinase PKCθ, 1 µmol/L single concentration, ref DOI: 10.1158/1535-7163.MCT-18-0877
[22] = kinase DDR1, 1 µmol/L single concentration, ref DOI: 10.1158/1535-7163.MCT-18-0877
[23] = kinase MAP4K2, 1 µmol/L single concentration, ref DOI: 10.1158/1535-7163.MCT-18-0877
[24] = kinase TRKC, 1 µmol/L single concentration, ref DOI: 10.1158/1535-7163.MCT-18-0877
[25] = MARK2, 1 µmol/L single concentration, ref DOI: 10.1158/1535-7163.MCT-18-0877
[26] = MAPKAPK5, 1 µmol/L single concentration, ref DOI: 10.1158/1535-7163.MCT-18-0877
[27] = kinase LOK, 1 µmol/L single concentration, ref DOI: 10.1371/journal.pone.0092146
[28] = kinase LYNa, 1 µmol/L single concentration, ref DOI: 10.1371/journal.pone.0092146
[29] = kinase HCK, 1 µmol/L single concentration, ref DOI: 10.1371/journal.pone.0092146
[30] = kinase FGFR3, 1 µmol/L single concentration, ref DOI: 10.1371/journal.pone.0092146
[31] = CDK9/CycT1 kinase assay, 1 µmol/L single concentration, ref DOI: 10.1371/journal.pone.0092146
[32] = kinase CK2α1/β, 1 µmol/L single concentration, ref DOI: 10.1371/journal.pone.0092146
[33] = kinase PKCθ, 1 µmol/L single concentration, ref DOI: 10.1371/journal.pone.0092146
[34] = kinase DDR1, 1 µmol/L single concentration, ref DOI: 10.1371/journal.pone.0092146
[35] = MARK2, 1 µmol/L single concentration, ref DOI: 10.1371/journal.pone.0092146
[36] = MAPKAPK5, 1 µmol/L single concentration, ref DOI: 10.1371/journal.pone.0092146
[37] = kinase SYK, 1 µmol/L single concentration, ref DOI: 10.1371/journal.pone.0092146
[38] = kinase MAP4K2, 1 µmol/L single concentration, ref DOI: 10.1371/journal.pone.0092146
[39] = kinase TRKC, 1 µmol/L single concentration, ref DOI: 10.1371/journal.pone.0092146

| Compound | %-inhibition at 1 µmol/L, LOK [1, 14] [%] | %-inhibition at 1 µmol/L, LYNa [2, 15] [%] | %-inhibition at 1 µmol/L, HCK [3, 16] [%] | %-inhibition at 1 µmol/L, FGFR3 [4, 17] [%] | %-inhibition at 1 µmol/L, SYK [5, 18] [%] | %-inhibition CDK9/CycT1 [6, 19] [%] | %-inhibition at 1 µmol/L, CK2α1/β [7, 20] [%] | %-inhibition at 1 µmol/L, PKCθ [8, 21] [%] | %-inhibition at 1 µmol/L, DDR1 [9, 22] [%] | %-inhibition at 1 µmol/L, MAP4K2 [10, 23] [%] | %-inhibition at 1 µmol/L, TRKC [11, 24] [%] | %-inhibition, MARK2 [12, 25] [%] | %-inhibition, MAPKAPK5 [13, 26] [%] | %-inhibition at 1 µmol/L, HCK [3, 29] [%] | %-inhibition at 1 µmol/L, FGFR3 [4, 30] [%] | %-inhibition, MARK2 [12, 35] [%] | also measured |
| --- | --- | --- | --- | --- | --- | --- | --- | --- | --- | --- | --- | --- | --- | --- | --- | --- | --- |
| CC#CC(=O)N1CCC[C@H]1c1nc(-c2ccc(C(=O)Nc3ccccn3)cc2)c2c(N)nccn12 [acalabrutinib] | 3.37 | 2 | 0.452 | -1.31 | -19 | 15 | 5.34 | -8 | 8 | -11 | 11 | -9 | -1.87 | – | – | – | – |
| CCc1cc2c(cc1N1CCC(N3CCOCC3)CC1)C(C)(C)c1[nH]c3cc(C#N)ccc3c1C2=O [alectinib] | – | 32 | 43 | 8 | -9 | -0.0188 | -3.18 | -2 | 16 | 7.56 | 31 | 5.66 | -2.38 | – | – | – | – |
| COc1cc(N2CCC(N3CCN(C)CC3)CC2)ccc1Nc1ncc(Cl)c(Nc2ccccc2P(C)(C)=O)n1 [brigatinib] | – | – | – | – | – | – | – | – | – | – | – | – | – | – | – | – | %-inhibition at 1 µmol/L, LOK [1]: 96%; %-inhibition at 1 µmol/L, LYNa [2]: 51%; %-inhibition at 1 µmol/L, HCK [3]: 78%; %-inhibition at 1 µmol/L, FGFR3 [4]: 93%; %-inhibition at 1 µmol/L, SYK [5]: 68%; %-inhibition CDK9/CycT1 [6]: 5.35%; %-inhibition at 1 µmol/L, CK2α1/β [7]: 8.51%; %-inhibition at 1 µmol/L, PKCθ [8]: 29%; %-inhibition at 1 µmol/L, DDR1 [9]: 84%; %-inhibition at 1 µmol/L, MAP4K2 [10]: 77%; %-inhibition at 1 µmol/L, TRKC [11]: 53%; %-inhibition, MARK2 [12]: 96%; %-inhibition, MAPKAPK5 [13]: 3.41% |
| C[C@@H](Oc1cc(-c2cnn(C3CCNCC3)c2)cnc1N)c1c(Cl)ccc(F)c1Cl [crizotinib] | – | – | – | – | – | – | – | – | – | – | – | – | – | 26 | 43 | 26 | %-inhibition at 1 µmol/L, LOK [1, 27]: 98%; %-inhibition at 1 µmol/L, LYNa [2, 28]: 42%; %-inhibition CDK9/CycT1 [6, 31]: 5%; %-inhibition at 1 µmol/L, CK2α1/β [7, 32]: -6.39%; %-inhibition at 1 µmol/L, PKCθ [8, 33]: -3%; %-inhibition at 1 µmol/L, DDR1 [9, 34]: 97%; %-inhibition, MAPKAPK5 [13, 36]: -3.19% |
| CC(C)(C)c1nc(-c2cccc(NS(=O)(=O)c3c(F)cccc3F)c2F)c(-c2ccnc(N)n2)s1 [dabrafenib] | – | – | – | – | – | – | – | – | – | – | – | – | – | 57 | 4.27 | 2.85 | %-inhibition at 1 µmol/L, SYK [5, 37]: 37%; %-inhibition at 1 µmol/L, DDR1 [9, 34]: 96%; %-inhibition at 1 µmol/L, MAP4K2 [10, 38]: 8%; %-inhibition at 1 µmol/L, TRKC [11, 39]: 81% |
| C=CC(=O)N1CCC[C@@H](n2nc(-c3ccc(Oc4ccccc4)cc3)c3c(N)ncnc32)C1 [ibrutinib] | 24 | 99 | 100 | 82 | -20 | – | -11 | -1.13 | 37 | -4.43 | 24 | 2.67 | -2.44 | – | – | – | – |
| CO[C@@H]1[C@H](N(C)C(=O)c2ccccc2)C[C@H]2O[C@]1(C)n1c3ccccc3c3c4c(c5c6ccccc6n2c5c31)C(=O)NC4 [midostaurin] | 98 | 90 | – | – | 97 | 49 | -5.6 | – | 98 | 94 | – | – | -2 | – | – | – | – |
| CC(=O)Nc1cccc(-n2c(=O)n(C3CC3)c(=O)c3c(Nc4ccc(I)cc4F)n(C)c(=O)c(C)c32)c1 [trametinib] | – | – | – | – | – | – | – | – | – | – | – | – | – | -2.84 | -5.68 | -6 | %-inhibition at 1 µmol/L, LOK [1, 27]: 12%; %-inhibition at 1 µmol/L, LYNa [2, 28]: -1.74%; %-inhibition at 1 µmol/L, SYK [5, 37]: -5%; %-inhibition CDK9/CycT1 [6, 31]: -2.31%; %-inhibition at 1 µmol/L, CK2α1/β [7, 32]: -3.4%; %-inhibition at 1 µmol/L, PKCθ [8, 33]: 0.388%; %-inhibition at 1 µmol/L, MAP4K2 [10, 38]: 4%; %-inhibition at 1 µmol/L, TRKC [11, 39]: -7.43%; %-inhibition, MAPKAPK5 [13, 36]: -2.22% |
